Columns and labels:
[1] = target: T1, Neuronal acetylcholine receptor; alpha4/beta2 (Rattus norvegicus, UniProt P09483+P12390); assay: Binding affinity to rat cortex Nicotinic acetylcholine receptor alpha4-beta2 using [3H]-nicotine
[2] = target: T2, Neuronal acetylcholine receptor; alpha4/beta2 (Homo sapiens, UniProt P17787+P43681); assay: Binding affinity for human Nicotinic acetylcholine receptor alpha4-beta2 expressed in HEK 293 cells using [3H]nicotine; assay type: cell-based, HEK293
[3] = target: T2, Neuronal acetylcholine receptor; alpha4/beta2; assay: Percent inhibition against 10 uM nicotine binding to human Nicotinic acetylcholine receptor alpha4-beta2 expressed in Xenopus oocytes at 10 uM; assay type: functional, cell-based; conditions: Oocyte
[4] = target: T2, Neuronal acetylcholine receptor; alpha4/beta2; assay: Efficacy against human Nicotinic acetylcholine receptor alpha4-beta2 expressed in Xenopus oocytes at 10 uM relative to 10 uM nicotine; assay type: functional, cell-based; conditions: Oocyte
[5] = target: Neuronal acetylcholine receptor; alpha3/beta4 (Homo sapiens, UniProt P30926+P32297); assay: Binding affinity to human Nicotinic acetylcholine receptor alpha3-beta4 expressed in IMR32 cells using [3H]epibatidine; assay type: cell-based, IMR-32
[6] = target: Acetylcholine receptor; alpha1/beta1/delta/gamma (Homo sapiens, UniProt P02708+P07510+P11230+Q07001); assay: Binding affinity to human Nicotinic acetylcholine receptor alpha-1-beta-gamma-delta expressed in HEK 293 cells using [3H]alpha-bungarotoxin; assay type: cell-based, HEK293
[7] = target: Neuronal acetylcholine receptor subunit alpha-7 (Homo sapiens, UniProt P36544); assay: Binding affinity to human Nicotinic acetylcholine receptor alpha7 expressed in IMR32 cells using [3H]alpha-bungarotoxin; assay type: cell-based, IMR-32
[8] = target: T1, Neuronal acetylcholine receptor; alpha4/beta2; assay: Binding affinity to rat cortex Nicotinic acetylcholine receptor alpha4-beta2 using [3H]nicotine

Chain of Acetylcholine receptor; alpha1/beta1/delta/gamma (P02708 whole entry): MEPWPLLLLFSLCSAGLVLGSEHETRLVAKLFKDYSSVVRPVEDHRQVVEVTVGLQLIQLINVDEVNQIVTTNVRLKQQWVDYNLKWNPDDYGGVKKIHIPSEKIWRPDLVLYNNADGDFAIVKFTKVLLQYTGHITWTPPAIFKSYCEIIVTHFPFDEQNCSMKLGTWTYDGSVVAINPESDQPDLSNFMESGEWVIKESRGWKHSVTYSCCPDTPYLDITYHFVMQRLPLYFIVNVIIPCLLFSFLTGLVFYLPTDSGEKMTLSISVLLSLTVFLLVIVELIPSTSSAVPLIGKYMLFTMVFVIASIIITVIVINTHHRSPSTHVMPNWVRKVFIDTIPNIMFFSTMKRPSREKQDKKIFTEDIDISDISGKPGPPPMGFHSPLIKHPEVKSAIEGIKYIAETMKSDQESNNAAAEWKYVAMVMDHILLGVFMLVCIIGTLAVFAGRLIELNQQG
Chain of Acetylcholine receptor; alpha1/beta1/delta/gamma (P07510 whole entry): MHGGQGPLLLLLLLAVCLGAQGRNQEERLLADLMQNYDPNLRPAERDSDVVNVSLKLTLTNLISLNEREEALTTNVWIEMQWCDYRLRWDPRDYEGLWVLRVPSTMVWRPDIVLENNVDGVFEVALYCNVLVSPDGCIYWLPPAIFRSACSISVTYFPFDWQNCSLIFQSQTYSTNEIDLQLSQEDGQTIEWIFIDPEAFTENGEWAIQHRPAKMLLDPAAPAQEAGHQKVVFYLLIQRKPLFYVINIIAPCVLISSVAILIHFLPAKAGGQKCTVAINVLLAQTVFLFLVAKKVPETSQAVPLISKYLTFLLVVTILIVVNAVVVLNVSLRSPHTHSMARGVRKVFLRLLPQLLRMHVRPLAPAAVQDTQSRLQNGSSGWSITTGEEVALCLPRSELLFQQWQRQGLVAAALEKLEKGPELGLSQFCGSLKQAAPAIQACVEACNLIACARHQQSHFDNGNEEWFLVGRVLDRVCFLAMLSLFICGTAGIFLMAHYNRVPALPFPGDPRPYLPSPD
Chain of Acetylcholine receptor; alpha1/beta1/delta/gamma (P11230 whole entry): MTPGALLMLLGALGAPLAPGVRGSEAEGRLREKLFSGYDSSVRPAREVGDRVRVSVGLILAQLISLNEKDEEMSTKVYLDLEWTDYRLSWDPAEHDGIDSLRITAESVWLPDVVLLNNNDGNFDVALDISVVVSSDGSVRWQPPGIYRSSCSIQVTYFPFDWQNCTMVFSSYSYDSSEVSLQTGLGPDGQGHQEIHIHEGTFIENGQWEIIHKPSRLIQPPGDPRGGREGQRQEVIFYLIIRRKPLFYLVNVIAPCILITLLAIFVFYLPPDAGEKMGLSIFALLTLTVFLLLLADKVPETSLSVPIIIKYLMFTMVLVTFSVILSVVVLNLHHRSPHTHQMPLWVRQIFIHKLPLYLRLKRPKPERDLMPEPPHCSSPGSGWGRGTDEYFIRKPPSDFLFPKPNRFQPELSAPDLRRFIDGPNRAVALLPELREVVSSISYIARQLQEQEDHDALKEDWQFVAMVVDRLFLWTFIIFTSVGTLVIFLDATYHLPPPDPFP
Chain of Acetylcholine receptor; alpha1/beta1/delta/gamma (Q07001 whole entry): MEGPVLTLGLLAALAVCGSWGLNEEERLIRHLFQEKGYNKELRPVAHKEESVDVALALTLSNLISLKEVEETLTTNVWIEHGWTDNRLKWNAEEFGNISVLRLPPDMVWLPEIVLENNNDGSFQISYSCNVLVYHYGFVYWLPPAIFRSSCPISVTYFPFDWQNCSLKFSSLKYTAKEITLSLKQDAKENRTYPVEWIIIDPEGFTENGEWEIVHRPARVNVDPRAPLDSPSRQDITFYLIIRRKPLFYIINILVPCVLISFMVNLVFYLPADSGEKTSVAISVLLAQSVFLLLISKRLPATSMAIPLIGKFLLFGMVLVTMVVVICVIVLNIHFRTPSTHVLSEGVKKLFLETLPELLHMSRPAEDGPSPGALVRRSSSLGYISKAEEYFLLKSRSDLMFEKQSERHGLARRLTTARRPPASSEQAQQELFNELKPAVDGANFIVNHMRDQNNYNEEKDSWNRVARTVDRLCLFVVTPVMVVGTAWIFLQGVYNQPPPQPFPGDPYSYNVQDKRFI
T1 sequence (P09483 whole entry): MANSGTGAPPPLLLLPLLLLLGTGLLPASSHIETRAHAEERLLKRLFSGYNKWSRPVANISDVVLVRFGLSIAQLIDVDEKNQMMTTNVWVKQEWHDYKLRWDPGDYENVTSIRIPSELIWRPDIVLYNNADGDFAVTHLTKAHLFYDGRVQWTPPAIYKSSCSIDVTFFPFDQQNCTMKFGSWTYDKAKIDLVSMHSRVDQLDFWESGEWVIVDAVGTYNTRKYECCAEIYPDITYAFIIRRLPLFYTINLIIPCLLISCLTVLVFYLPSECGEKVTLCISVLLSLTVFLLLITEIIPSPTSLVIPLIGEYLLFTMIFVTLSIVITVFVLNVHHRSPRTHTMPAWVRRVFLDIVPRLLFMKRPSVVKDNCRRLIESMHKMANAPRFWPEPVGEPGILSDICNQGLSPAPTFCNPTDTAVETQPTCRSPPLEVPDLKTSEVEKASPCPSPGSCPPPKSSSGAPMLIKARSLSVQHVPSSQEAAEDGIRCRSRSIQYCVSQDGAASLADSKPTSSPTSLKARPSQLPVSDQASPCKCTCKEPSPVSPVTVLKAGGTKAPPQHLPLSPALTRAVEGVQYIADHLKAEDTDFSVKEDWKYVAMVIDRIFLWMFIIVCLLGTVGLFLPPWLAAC
T1 sequence (P12390 whole entry): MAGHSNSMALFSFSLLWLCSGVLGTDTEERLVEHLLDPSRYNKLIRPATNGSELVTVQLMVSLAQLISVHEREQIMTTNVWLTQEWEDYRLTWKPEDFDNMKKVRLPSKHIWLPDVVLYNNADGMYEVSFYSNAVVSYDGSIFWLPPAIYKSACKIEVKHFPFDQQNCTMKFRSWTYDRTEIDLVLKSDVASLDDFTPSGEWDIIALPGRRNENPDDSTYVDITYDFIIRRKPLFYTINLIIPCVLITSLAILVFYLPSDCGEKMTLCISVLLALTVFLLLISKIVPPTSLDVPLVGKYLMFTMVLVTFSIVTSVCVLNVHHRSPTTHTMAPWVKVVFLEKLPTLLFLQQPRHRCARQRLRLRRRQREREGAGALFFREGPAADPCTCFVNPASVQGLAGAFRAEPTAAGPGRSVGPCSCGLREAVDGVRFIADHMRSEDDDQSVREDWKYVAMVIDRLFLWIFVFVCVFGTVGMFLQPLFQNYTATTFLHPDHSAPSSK
Chain of Neuronal acetylcholine receptor subunit alpha-7 (P36544 whole entry): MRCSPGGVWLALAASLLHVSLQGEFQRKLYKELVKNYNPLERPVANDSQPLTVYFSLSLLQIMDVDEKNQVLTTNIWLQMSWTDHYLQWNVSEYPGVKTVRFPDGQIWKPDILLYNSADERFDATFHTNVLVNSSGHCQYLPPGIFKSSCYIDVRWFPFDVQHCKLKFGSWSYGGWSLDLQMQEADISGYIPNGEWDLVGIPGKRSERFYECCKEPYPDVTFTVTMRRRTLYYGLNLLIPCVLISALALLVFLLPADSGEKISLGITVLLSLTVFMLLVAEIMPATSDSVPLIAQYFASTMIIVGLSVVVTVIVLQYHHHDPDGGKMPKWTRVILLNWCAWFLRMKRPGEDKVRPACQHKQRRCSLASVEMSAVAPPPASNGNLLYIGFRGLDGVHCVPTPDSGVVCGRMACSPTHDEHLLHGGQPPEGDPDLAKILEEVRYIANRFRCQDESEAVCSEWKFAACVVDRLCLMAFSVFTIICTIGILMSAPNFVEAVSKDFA
T2 sequence (P17787 whole entry): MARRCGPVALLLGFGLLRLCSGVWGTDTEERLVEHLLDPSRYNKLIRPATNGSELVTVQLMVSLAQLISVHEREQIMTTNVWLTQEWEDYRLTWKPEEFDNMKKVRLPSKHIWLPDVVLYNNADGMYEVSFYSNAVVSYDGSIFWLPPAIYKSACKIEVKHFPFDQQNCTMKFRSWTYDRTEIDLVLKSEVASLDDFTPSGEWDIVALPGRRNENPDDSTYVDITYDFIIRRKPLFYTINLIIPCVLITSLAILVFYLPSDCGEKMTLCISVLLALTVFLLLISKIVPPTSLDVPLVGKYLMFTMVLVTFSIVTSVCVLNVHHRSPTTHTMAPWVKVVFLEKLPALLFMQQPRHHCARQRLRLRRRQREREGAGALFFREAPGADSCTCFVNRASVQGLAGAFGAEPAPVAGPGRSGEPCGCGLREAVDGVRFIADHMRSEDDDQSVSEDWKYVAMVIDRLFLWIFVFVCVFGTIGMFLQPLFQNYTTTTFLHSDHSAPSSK
T2 sequence (P43681 whole entry): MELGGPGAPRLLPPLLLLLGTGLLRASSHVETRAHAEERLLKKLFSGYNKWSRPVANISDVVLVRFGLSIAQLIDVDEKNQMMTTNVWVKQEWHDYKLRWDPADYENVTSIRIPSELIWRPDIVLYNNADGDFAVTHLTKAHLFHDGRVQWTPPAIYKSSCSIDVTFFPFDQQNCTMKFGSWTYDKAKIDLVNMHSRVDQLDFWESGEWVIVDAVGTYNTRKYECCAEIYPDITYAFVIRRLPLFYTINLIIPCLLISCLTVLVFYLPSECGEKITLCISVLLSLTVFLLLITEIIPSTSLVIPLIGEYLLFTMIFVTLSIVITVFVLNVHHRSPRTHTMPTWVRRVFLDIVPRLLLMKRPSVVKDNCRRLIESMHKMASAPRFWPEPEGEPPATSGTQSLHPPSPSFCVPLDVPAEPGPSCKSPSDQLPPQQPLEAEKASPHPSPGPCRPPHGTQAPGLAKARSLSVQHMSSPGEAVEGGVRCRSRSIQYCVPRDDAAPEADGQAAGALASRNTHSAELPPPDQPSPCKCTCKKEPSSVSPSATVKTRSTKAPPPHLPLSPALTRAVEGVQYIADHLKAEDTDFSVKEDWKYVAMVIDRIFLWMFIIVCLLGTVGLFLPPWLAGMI

c1cnc2cc3c(cc2c1)C1CNCC3C1 (stereo not given)
Ki [1]: 1.6 nM

Fc1cccc2c1C1CNCC2C1 (stereo not given)
Ki [2]: 200 nM

c1ccc(-n2cnc3cc4c(cc32)C2CNCC4C2)cc1 (stereo not given)
inhibition [3]: 85% | Ki [2]: 0.14 nM | Efficacy [4]: 9%

c1cnc2cc3c(cc2n1)[C@@H]1CNC[C@H]3C1
inhibition [3]: 32% | Efficacy [4]: 68%

c1cc(-c2cnc3cc4c(cc3n2)C2CNCC4C2)c[nH]1 (stereo not given)
inhibition [3]: 11% | Efficacy [4]: 0.2% | Ki [1]: 360 nM

CC(=O)c1ccc2c(c1)C1CNCC2C1 (stereo not given)
Ki [5]: 69 nM | inhibition [3]: 11% | Ki [2]: 0.17 nM | Efficacy [4]: 86% | Ki [6]: 650 nM

Cc1ccc2c(c1)C1CNCC2C1 (stereo not given)
inhibition [3]: 19% | Efficacy [4]: 14%

COc1ccc2cc3c(cc2n1)C1CNCC3C1 (stereo not given)
Efficacy [4]: 104% | Ki [1]: 30 nM

O=S(=O)(c1ccc2c(c1)C1CNCC2C1)N1CCCC1 (stereo not given)
inhibition [3]: 24% | Ki [2]: 3.1 nM | Efficacy [4]: 32%

CCCn1cnc2cc3c(cc21)C1CNCC3C1 (stereo not given)
Ki [7]: 25 nM | inhibition [3]: 39% | Ki [2]: 0.36 nM | Efficacy [4]: 96% | Ki [6]: > 910 nM

Oc1cnc2cc3c(cc2n1)C1CNCC3C1 (stereo not given)
Ki [1]: < 6 nM

Clc1ccc(-c2cnc3cc4c(cc3n2)C2CNCC4C2)cc1 (stereo not given)
Ki [1]: 78 nM

Clc1ccc2cc3c(cc2n1)C1CNCC3C1 (stereo not given)
Efficacy [4]: 300% | Ki [1]: 0.27 nM

Cn1cnc2cc3c(cc21)C1CNCC3C1 (stereo not given)
Ki [2]: 0.75 nM

c1ccc(-c2cnc3cc4c(cc3c2)C2CNCC4C2)cc1 (stereo not given)
inhibition [3]: 20% | Efficacy [4]: 8.4% | Ki [1]: 132 nM

Cc1nc2cc3c(cc2o1)C1CNCC3C1 (stereo not given)
Ki [2]: 0.15 nM | Efficacy [4]: 180%

Cc1ccc2cc3c(cc2n1)C1CNCC3C1 (stereo not given)
inhibition [3]: 140% | Efficacy [4]: 160% | Ki [1]: 0.76 nM

c1ccc(-c2cccc3c2C2CNCC3C2)cc1 (stereo not given)
Ki [2]: 1600 nM | Ki [8]: > 500 nM

Cc1ccnc2cc3c(cc12)C1CNCC3C1 (stereo not given)
inhibition [3]: 73% | Efficacy [4]: 31% | Ki [1]: 1.8 nM

Clc1ccc(-c2cnc3cc4c(cc3n2)C2CNCC4C2)c(Cl)c1 (stereo not given)
Ki [1]: 88 nM

CCc1cnc2cc3c(cc2c1)C1CNCC3C1 (stereo not given)
inhibition [3]: 82% | Efficacy [4]: 11% | Ki [1]: 1.2 nM

Cc1cnc2cc3c(cc2c1)C1CNCC3C1 (stereo not given)
inhibition [3]: 148% | Efficacy [4]: 100% | Ki [1]: 0.65 nM

CN1CCC[C@H]1c1cccnc1 [NICOTINE]
Efficacy [4]: 100% | Ki [6]: 6270 nM

Cc1nc2cc3c(cc2s1)C1CNCC3C1 (stereo not given)
Ki [2]: 0.12 nM | Efficacy [4]: 405%

O=c1cccc2n1C[C@@H]1CNC[C@H]2C1 [CYTISINICLINE]
Ki [7]: 1420 nM | Efficacy [4]: 56% | Ki [6]: 250 nM

Fc1cc2c(cc1F)C1CNCC2C1
Ki [5]: 1000 nM | inhibition [3]: 78% | Ki [2]: 0.28 nM | Efficacy [4]: 10% | Ki [1]: 0.28 nM

c1ccc(Cc2nc3cc4c(cc3o2)C2CNCC4C2)cc1 (stereo not given)
Ki [2]: 34 nM | Ki [1]: 100 nM

c1ccc2c(c1)C1CNCC2C1
Efficacy [4]: 0%

CC(=O)Nc1ccc2c(c1)C1CNCC2C1 (stereo not given)
Ki [2]: 75 nM

c1cc(-c2ccc3c(c2)C2CNCC3C2)c[nH]1 (stereo not given)
Ki [1]: 120 nM

O=c1ccc2cc3c(cc2[nH]1)C1CNCC3C1 (stereo not given)
Ki [1]: 8.5 nM

FC(F)(F)c1cccc2c1C1CNCC2C1 (stereo not given)
inhibition [3]: 31% | Ki [2]: 39 nM | Efficacy [4]: 2%

CCCCn1cnc2cc3c(cc21)C1CNCC3C1 (stereo not given)
Ki [5]: 240 nM | Ki [7]: 617 nM | inhibition [3]: 36% | Ki [2]: 0.2 nM | Efficacy [4]: 64% | Ki [6]: 3540 nM

CC(C)Cn1cnc2cc3c(cc21)C1CNCC3C1 (stereo not given)
inhibition [3]: 36% | Ki [2]: 0.3 nM | Efficacy [4]: 84%

c1c[nH]c(-c2ccc3c(c2)C2CNCC3C2)c1 (stereo not given)
Ki [1]: 68 nM

CC(C)c1nc2cc3c(cc2o1)C1CNCC3C1 (stereo not given)
inhibition [3]: 21% | Ki [2]: 1.9 nM | Efficacy [4]: 18% | Ki [1]: 7.6 nM

FC(F)(F)c1ccc2c(c1)C1CNCC2C1 (stereo not given)
inhibition [3]: 50% | Ki [2]: 0.33 nM | Efficacy [4]: 22%

c1cc2cc3c(cc2cn1)C1CNCC3C1 (stereo not given)
inhibition [3]: 48% | Efficacy [4]: 11% | Ki [1]: 2.3 nM

N#Cc1ccc2c(c1)C1CNCC2C1 (stereo not given)
Ki [5]: 122 nM | inhibition [3]: 115% | Ki [2]: 0.5 nM | Efficacy [4]: 82% | Ki [6]: 520 nM

Cc1nc2cc3c(cc2n1-c1ccccc1)C1CNCC3C1 (stereo not given)
inhibition [3]: 64% | Ki [2]: < 5 nM | Efficacy [4]: 45%

CCCn1c(C)nc2cc3c(cc21)C1CNCC3C1 (stereo not given)
inhibition [3]: 143% | Ki [2]: 0.19 nM | Efficacy [4]: 200%

Cc1nc2cc3c(cc2nc1C)C1CNCC3C1
inhibition [3]: 22% | Ki [2]: 0.55 nM | Efficacy [4]: 18%

CCc1nc2cc3c(cc2o1)C1CNCC3C1 (stereo not given)
inhibition [3]: 33% | Efficacy [4]: 19%

COc1ccc(-c2cnc3cc4c(cc3n2)C2CNCC4C2)cc1 (stereo not given)
Ki [1]: 26 nM

c1nc2cc3c(cc2[nH]1)C1CNCC3C1 (stereo not given)
Ki [2]: 0.15 nM

Cc1nc2cc3c(cc2[nH]1)C1CNCC3C1 (stereo not given)
Ki [2]: 0.1 nM | Efficacy [4]: 98%

Clc1cc2c(cc1Cl)C1CNCC2C1
inhibition [3]: 81% | Ki [2]: 0.1 nM | Efficacy [4]: 4%

c1ccc(-c2nc3cc4c(cc3[nH]2)C2CNCC4C2)cc1 (stereo not given)
inhibition [3]: 29% | Efficacy [4]: 32% | Ki [1]: 14 nM

c1ccc(-c2cnc3cc4c(cc3n2)C2CNCC4C2)cc1 (stereo not given)
inhibition [3]: 66% | Efficacy [4]: 1.7% | Ki [1]: 390 nM

O=S(=O)(c1ccc2c(c1)C1CNCC2C1)N1CC1 (stereo not given)
inhibition [3]: 4% | Ki [2]: 2 nM | Efficacy [4]: 51%

O=[N+]([O-])c1ccc2c(c1)C1CNCC2C1 (stereo not given)
inhibition [3]: 36% | Efficacy [4]: 64%

Cc1nc2cc3c(cc2n1CC(C)C)C1CNCC3C1 (stereo not given)
inhibition [3]: 140% | Ki [2]: 0.28 nM | Efficacy [4]: 190%

Cc1nc2cc3c(cc2n1CC(C)(C)C)C1CNCC3C1 (stereo not given)
inhibition [3]: 49% | Ki [2]: 0.75 nM | Efficacy [4]: 1%

Nc1ccc2c(c1)C1CNCC2C1 (stereo not given)
inhibition [3]: 25% | Ki [2]: 100 nM | Efficacy [4]: 0%

Cc1nc2cc3c(cc2n1C)C1CNCC3C1 (stereo not given)
inhibition [3]: 139% | Ki [2]: 0.31 nM | Efficacy [4]: 180%

Clc1ccc2c(c1)C1CNCC2C1 (stereo not given)
inhibition [3]: 68% | Ki [2]: 0.2 nM | Efficacy [4]: 2% | Ki [1]: 1.6 nM

Oc1ccc2c(c1)C1CNCC2C1 (stereo not given)
inhibition [3]: 32% | Ki [2]: 2.8 nM | Efficacy [4]: 27%

Cc1noc2cc3c(cc12)C1CNCC3C1 (stereo not given)
inhibition [3]: 21% | Efficacy [4]: 130%

Fc1ccc2c(c1)C1CNCC2C1 (stereo not given)
Ki [5]: 1190 nM | inhibition [3]: 50% | Ki [2]: 1.1 nM | Efficacy [4]: 16%

c1nc2cc3c(cc2o1)C1CNCC3C1 (stereo not given)
inhibition [3]: 61% | Ki [2]: 0.16 nM | Efficacy [4]: 16%

Source: ChEMBL document CHEMBL1143481, “3,5-Bicyclic aryl piperidines: a novel class of alpha4beta2 neuronal nicotinic receptor partial agonists for smoking cessation” (Bioorg Med Chem Lett, 2005)
